Data published in paper PMC7828731, “Anti-Aging Potential of Extracts from Washingtonia filifera Seeds” (Plants, 2021).
In brackets after ≈: the same amount, converted by molar mass.

Target: T1, Collagenase from Clostridium histolyticum
T1 construct: gene colG; commercial native collagenase (Sigma)
Experiment: absorbance at […] nm, FALGPA hydrolysis
Assay type: biochemical, Hathewaya histolytica
Conditions: FALGPA 0.8 mM; 0.05 M Tricine, pH 7.5, 0.4 M NaCl, 0.01 M CaCl2; 15 min preincubation

With O=C(O[C@@H]1Cc2c(O)cc(O)cc2O[C@@H]1c1cc(O)c(O)c(O)c1)c1cc(O)c(O)c(O)c1 [Epigallocatechin gallate] the “IC50 (μg/mL) / Collagenase *” value was 120.8 ± 6.22 µg/mL (≈ 264 µM).
